Reference: patent publication US9216968B2, “Heterocyclic derivative and pharmaceutical drug” (NIPPON SHINYAKU CO., LTD., priority 2011, dated 2015)
pIC50: −log10 of the molar value. Counter-ions that a name gives are not always drawn.

Biological target: human mPGES-1 (Homo sapiens (Human), UniProt O14684)
Assay: mPGES-1 inhibiting activity (microsome fractions, PGE2 by HTRF)
Assay type: biochemical
Details: microsomes from CHO-K1 cells transfected with human mPGES-1; PGH2 1 μM, 4° C., 60 seconds; read-out: mPGES-1 Inhibition IC50
Procedure: mPGES-1 microsome fractions were prepared from CHO-K1 cells transiently transfected with plasmid encoding the human mPGES-1cDNA. Microsomes were diluted with potassium phosphate buffer containing reduced glutathione (pH7.4), and DMSO containing test compound or DMSO alone was added (such that DMSO final concentration would be 1% in each) and incubated at 4° C. for 20 minutes. Then, the enzymatic reactions were initiated by the addition of PGH2 substrate (final concentration 1 μM) and incubated at 4° C. for 60 seconds. The reaction was terminated by the addition of a citrate solution (final citrate concentration 50 mM) containing ferric chloride (final concentration 1 mg/mL). PGE2 production in the enzyme reaction aliquot was measured using HTRF kit (Cisbio International, catalogue #62P2APEC). The solution free of test compound was used as positive control, and the solution free of test compound and microsome sample was used as negative control. 100% activity was defined as PGE2 production in the positive control minus PGE2 production in negative control. IC50 value was calculated by standard method.

Chain of human mPGES-1 (O14684 whole entry): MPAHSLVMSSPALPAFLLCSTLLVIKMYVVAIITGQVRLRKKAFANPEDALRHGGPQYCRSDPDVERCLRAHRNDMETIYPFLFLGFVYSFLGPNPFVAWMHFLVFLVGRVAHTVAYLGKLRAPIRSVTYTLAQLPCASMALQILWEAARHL

Structure (SMILES) | pIC50
O=C(Nc1cc(C(=O)NCc2ccccc2C(F)(F)F)c2nc(C3CCCO3)[nH]c2c1)c1ccccc1C(F)(F)F (stereo in doubt) [Example 67, 2-[(2S)-Tetrahydrofuran-2-yl]-N-[2-(trifluoromethyl)benzyl]-6-({[2-(trifluoromethyl)phenyl]carbonyl}amino)-1H-benzimidazole-4-carboxamide hydrochloride] | 7.96
O=C(Nc1cc(C(=O)NCC2(O)CCCCC2)c2nc[nH]c2c1)c1ccccc1C(F)(F)F [Example 5, N-[(1-Hydroxycyclohexyl)methyl]-6-({[2-(trifluoromethyl)phenyl]carbonyl}amino)-1H-benzimidazole-4-carboxamide] | 6.34
O=C(Nc1cc2c(c(C(=O)NCc3ccccc3C(F)(F)F)c1)OCC2)c1ccccc1C(F)(F)F [Example 6, N-[2-(Trifluoromethyl)benzyl]-5-({[2-(trifluoromethyl)phenyl]carbonyl}amino)-2,3-dihydro-1-benzofuran-7-carboxamide] | 7.56
O=C(Nc1cc(C(=O)NC2CCCCC2)c2[nH]ncc2c1)c1ccccc1C(F)(F)F [Example 9, N-Cyclohexyl-5-({[2-(trifluoromethyl)phenyl]carbonyl}amino)-1H-indazole-7-carboxamide] | 6.34
O=C(Nc1cc(C(=O)NCc2ccccc2C(F)(F)F)c2[nH]ncc2c1)c1ccccc1C(F)(F)F [Example 10, N-[2-(Trifluoromethyl)benzyl]-5-({[2-(trifluoromethyl)phenyl]carbonyl}amino)-1H-indazole-7-carboxamide] | 6.48
Cn1cnc2c(C(=O)NC3CCCCC3)cc(NC(=O)c3ccccc3C(F)(F)F)cc21 [Example 47, N-Cyclohexyl-1-methyl-6-({[2-(trifluoromethyl)phenyl]carbonyl}amino)-1H-benzimidazole-4-carboxamide] | 6.57
COCc1nc2c(C(=O)Nc3cccc(Cl)c3C)cc(NC(=O)c3cc(C#CCOC(C)(C)C)ccc3Cl)cc2[nH]1 [Example 117, 6-({[5-(3-tert-Butoxy-1-propynyl)-2-chlorophenyl]carbonyl}amino)-N-(3-chloro-2-methylphenyl)-2-(methoxymethyl)-1H-benz imidazole-4-carboxamide hydrochloride] | 6.23
COCc1nc2c(C(=O)Nc3cccc(Cl)c3C)cc(NC(=O)c3cc(CCC(C)(C)O)ccc3Cl)cc2[nH]1 [Example 119, 6-({[2-Chloro-5-(3-hydroxy-3-methylbutyl)phenyl]carbonyl}amino)-N-(3-chloro-2-methylphenyl)-2-(methoxymethyl)-1H-benzimidazole-4-carboxamide hydrochloride] | 6.68
Cc1c(Cl)cccc1NC(=O)c1cc(NC(=O)c2ccccc2C(F)(F)F)cc2[nH]c(NCC3(C)COC3)nc12 [Example 159, N-(3-Chloro-2-methylphenyl)-2-{[(3-methyloxetan-3-yl)methyl]amino}-6-({[2-(trifluoromethyl)phenyl]carbonyl}amino)-1H-benzimidazole-4-carboxamide hydrochloride] | 6.39
COCc1nc2c(C(=O)Nc3cccc(Cl)c3C)cc(NC(=O)c3cc(OCC(F)F)ccc3Cl)cc2[nH]1 [Example 248, 6-({[2-Chloro-5-(2,2-difluoroethoxy)phenyl]carbonyl}amino)-N-(3-chloro-2-methylphenyl)-2-(methoxymethyl)-1H-benzimidazole-4-carboxamide hydrochloride] | 6.70
COCc1nc2c(C(=O)Nc3cccc(Cl)c3C)cc(NC(=O)c3cc(OCCCC(F)(F)F)ccc3Cl)cc2[nH]1 [Example 249, N-(3-Chloro-2-methylphenyl)-6-({[2-chloro-5-(4,4,4-trifluorobutoxy)phenyl]carbonyl}amino)-2-(methoxymethyl)-1H-benzimidazole-4-carboxamide hydrochloride] | 6.39

Continued, values first:

pIC50 | Structure (SMILES)
8.00 | Cc1c(Cl)cccc1NC(=O)c1cc(NC(=O)c2ccccc2C(F)(F)F)cc2[nH]c(C3CCCO3)nc12 (stereo in doubt) [Example 66, N-(3-Chloro-2-methylphenyl)-2-[(2S)-tetrahydrofuran-2-yl]-6-({[2-(trifluoromethyl)phenyl]carbonyl}amino)-1H-benzimidazole-4-carboxamide hydrochloride]
6.49 | COCc1nc2c(C(=O)NCc3ccccc3Cl)cc(NC(=O)c3ccccc3C(F)(F)F)cc2n1C [Example 91, N-(2-Chlorobenzyl)-2-(methoxymethyl)-1-methyl-6-({[2-(trifluoromethyl)phenyl]carbonyl}amino)-1H-benzimidazole-4-carboxamide]
6.12 | COCc1nc2c(C(=O)Nc3cccc(Cl)c3C)cc(NC(=O)c3ccc(C(F)(F)F)cc3C(F)(F)F)cc2[nH]1 [Example 111, 6-({[2,4-Bis(trifluoromethyl)phenyl]carbonyl}amino)-N-(3-chloro-2-methylphenyl)-2-(methoxymethyl)-1H-benzimidazole-4-carboxamide hydrochloride]
6.69 | COCc1nc2c(C(=O)Nc3cccnc3)cc(NC(=O)c3ccccc3C(F)(F)F)cc2[nH]1 [Example 216, 2-(Methoxymethyl)-N-(pyridin-3-yl)-6-({[2-(trifluoromethyl)phenyl]carbonyl}amino)-1H-benzimidazole-4-carboxamide hydrochloride]
8.07 | COCc1nc2c(C(=O)Nc3ccsc3)cc(NC(=O)c3ccccc3C(F)(F)F)cc2[nH]1 [Example 220, 2-(Methoxymethyl)-N-(thiophen-3-yl)-6-({[2-(trifluoromethyl)phenyl]carbonyl}amino)-1H-benzimidazole-4-carboxamide hydrochloride]
8.66 | COCc1nc2c(C(=O)Nc3cccc4nsnc34)cc(NC(=O)c3ccccc3C(F)(F)F)cc2[nH]1 [Example 221, N-(2,1,3-Benzothiadiazol-4-yl)-2-(methoxymethyl)-6-({[2-(trifluoromethyl)phenyl]carbonyl}amino)-1H-benzimidazole-4-carboxamide hydrochloride]
6.18 | COCc1nc2c(C(=O)Nc3ccc4c(c3)S(=O)(=O)C=C4)cc(NC(=O)c3ccccc3C(F)(F)F)cc2[nH]1 [Example 222, N-(1,1-Dioxide-1-benzothiophen-6-yl)-2-(methoxymethyl)-6-({[2-(trifluoromethyl)phenyl]carbonyl}amino)-1H-benzimidazole-4-carboxamide hydrochloride]
7.17 | COCc1nc2c(C(=O)NCc3cccs3)cc(NC(=O)c3ccccc3C(F)(F)F)cc2[nH]1 [Example 223, 2-(Methoxymethyl)-N-(thiophen-2-ylmethyl)-6-({[2-(trifluoromethyl)phenyl]carbonyl}amino)-1H-benzimidazole-4-carboxamide hydrochloride]
7.58 | COCc1nc2c(C(=O)Nc3ccc4[nH]ccc4c3)cc(NC(=O)c3ccccc3C(F)(F)F)cc2[nH]1 [Example 224, N-(1H-Indol-5-yl)-2-(methoxymethyl)-6-({[2-(trifluoromethyl)phenyl]carbonyl}amino)-1H-benzimidazole-4-carboxamide]
7.81 | COCc1nc2c(C(=O)Nc3nc4ccccc4s3)cc(NC(=O)c3ccccc3C(F)(F)F)cc2[nH]1 [Example 225, N-(1,3-Benzothiazol-2-yl)-2-(methoxymethyl)-6-({[2-(trifluoromethyl)phenyl]carbonyl}amino)-1H-benzimidazole-4-carboxamide hydrochloride]
7.57 | COCc1nc2c(C(=O)NCC(C)(C)C)cc(NC(=O)c3ccccc3C(F)(F)F)cc2[nH]1 [Example 226, N-(2,2-Dimethylpropyl)-2-(methoxymethyl)-6-({[2-(trifluoromethyl)phenyl]carbonyl}amino)-1H-benzimidazole-4-carboxamide hydrochloride]
10.00 | COCc1nc2c(C(=O)Nc3cccs3)cc(NC(=O)c3ccccc3C(F)(F)F)cc2[nH]1 [Example 227, 2-(Methoxymethyl)-N-(thiophen-2-yl)-6-({[2-(trifluoromethyl)phenyl]carbonyl}amino)-1H-benzimidazole-4-carboxamide hydrochloride]
8.77 | COCc1nc2c(C(=O)Nc3nc4cc(Cl)ccc4o3)cc(NC(=O)c3ccccc3C(F)(F)F)cc2[nH]1 [Example 228, N-(5-Chloro-1,3-benzoxazol-2-yl)-2-(methoxymethyl)-6-({[2-(trifluoromethyl)phenyl]carbonyl}amino)-1H-benzimidazole-4-carboxamide hydrochloride]

Test system: A549 cells
Assay: Inhibition of PGE2 production in A549 cell (IL-1β stimulated)
Assay type: cell-based, human
Details: Homo sapiens, A549, 24 h, IL-1β 5 ng/well, PGE2 in culture medium
Procedure: Human A549 cells were seeded onto a 96-well plate at 2×10^4 cells/100 μL per well and allowed to incubate overnight. After removing the culture medium and washing with phosphate buffered saline, the culture medium was replaced by RPMI culture medium with 3% FBS containing a DMSO solution containing test compound or DMSO alone (such that DMSO final concentration would be […] in each). After incubation for 60 minutes, IL-1β (5 ng/well) was added and incubated at 37° C. for 24 hours. Then, PGE2 in the culture medium was measured using HTRF kit (Cisbio International, catalogue #62P2APEC), and PGF2α in the culture medium was measured using EIA kit (Cayman Chemical Company, catalogue #516011). The solution free of test compound was used as positive control, and the solution free of test compound and IL-1β was used as negative control. 100% activity was defined as PGE2 and PGF2α production in the positive control minus PGE2 and PGF2α production in the negative control. IC50 value was calculated by standard method.

pIC50 | Structure (SMILES)
7.05 | O=C(Nc1cc(C(=O)NCc2ccccc2C(F)(F)F)c2nc[nH]c2c1)c1ccccc1C(F)(F)F [Example 1, N-[2-(Trifluoromethyl)benzyl]-6-({[2-(trifluoromethyl)phenyl]carbonyl}amino)-1H-benzimidazol-4-carboxamide]

Same assay, conditions: IL-1β 5 ng/well, 24 hours, PGE2 in culture medium; hydrochloride

pIC50 | Structure (SMILES)
7.24 | Cc1c(Cl)cccc1NC(=O)c1cc(NC(=O)c2ccccc2C(F)(F)F)cc2[nH]c(C3CCCO3)nc12 (stereo in doubt) [Example 66, N-(3-Chloro-2-methylphenyl)-2-[(2S)-tetrahydrofuran-2-yl]-6-({[2-(trifluoromethyl)phenyl]carbonyl}amino)-1H-benzimidazole-4-carboxamide hydrochloride]
7.25 | O=C(Nc1cc(C(=O)NCc2ccccc2C(F)(F)F)c2nc(C3CCCO3)[nH]c2c1)c1ccccc1C(F)(F)F (stereo in doubt) [Example 67, 2-[(2S)-Tetrahydrofuran-2-yl]-N-[2-(trifluoromethyl)benzyl]-6-({[2-(trifluoromethyl)phenyl]carbonyl}amino)-1H-benzimidazole-4-carboxamide hydrochloride]
